Measured values reported in US7863248B2, “Tyrosinase activity inhibitor and ameliorant for facial blood flow” (Meiji Seika Kaisha, Ltd., priority 2003, dated 2011).

System: mushroom-derived tyrosinase
Assay: Tyrosinase activity inhibition (dopachrome formation from L-dopa, absorbance at 490 nm)
Format: biochemical
Conditions: for Inhibitory Rate (%): 37° C., 30 minutes; for tyrosinase inhibitory activity compared with comparative drugs: comparison in words
Description: As test substances, the composition prepared in Example 1 and four types of anthocyanin crystal prepared in Example 2 were used. To a 96-well plate, 40 μl of mushroom-derived tyrosinase (125 unit/ml; dissolved in a 67 mmol/l phosphate buffer solution; […] Sigma), and 40 μl of an inhibitor solution were added. The plate was allowed to stand for 37° C. for 30 minutes. Then, the amount of dopachrome produced was determined by absorbance at 490 nm. Tyrosinase inhibitory activity was expressed as an inhibitory rate obtained by the following equation: Inhibitory Rate (%)=[([…]: absorbance at 490 nm of a control solution • B: absorbance at 490 nm of a control solution (blank solution) • C: absorbance at 490 nm of an anthocyanin solution • D: absorbance at 490 nm of an anthocyanin solution (blank solution).

Structure (SMILES)	Inhibitory Rate (%) (inhibitor concentration 10 mM (2.7 mg/ml))	Inhibitory Rate (%) (inhibitor concentration 0.2 mM)	tyrosinase inhibitory activity compared with comparative drugs
OC[C@H]1O[C@@H](Oc2ccc(O)cc2)[C@H](O)[C@@H](O)[C@@H]1O [Arbutin, reference compound]	10.4		
OC[C@H]1O[C@@H](Oc2cc3c(O)cc(O)cc3[o+]c2-c2ccc(O)c(O)c2)[C@H](O)[C@@H](O)[C@@H]1O [C3G (Example 2), cyanidin-3-glucoside]		45.0	tyrosinase inhibitory activity at the same level as that found in comparative drugs such as kojic acid, arbutin
OC[C@H]1O[C@@H](Oc2cc3c(O)cc(O)cc3[o+]c2-c2cc(O)c(O)c(O)c2)[C@H](O)[C@@H](O)[C@@H]1O [D3G (Example 2), delphinidin-3-glucoside]		67.5	tyrosinase inhibitory activity at the same level as that found in comparative drugs such as kojic acid, arbutin
CC1O[C@@H](OC[C@H]2OC(Oc3cc4c(O)cc(O)cc4[o+]c3-c3cc(O)c(O)c(O)c3)[C@H](O)C(O)C2O)C(O)C(O)[C@H]1O (stereo partly shown) [D3R (Example 2), delphinidin-3-rutinoside]		70.1	tyrosinase inhibitory activity at the same level as that found in comparative drugs such as kojic acid, arbutin

Further lines, with some results ahead:

Inhibitory Rate (%) (inhibitor concentration 10 mM (2.7 mg/ml))	Inhibitory Rate (%) (inhibitor concentration 0.2 mM)	Structure (SMILES)	tyrosinase inhibitory activity compared with comparative drugs
	13.2	N[C@@H](CCC(=O)N[C@@H](CS)C(=O)NCC(=O)O)C(=O)O [Glutathione, reference compound]	
	34.7	O=c1cc(CO)occ1O [Kojic Acid, reference compound]	
	29.8	N[C@@H](CS)C(=O)O [L-Cysteine, reference compound]	
